This is an account of results in patent US20250026759A1 (Merck Sharp & Dohme LLC, priority 2023, published 2025).

SMILES strings stand for the structures.

The subject of this experiment is PBMCs infected with VSV-G pseudotyped HIV virus (VSV-G/pNLG1-P2A-ΔEnv). As to the kind of experiment: cells. It counts as cell-based, human. As to conditions: Homo sapiens, PBMC, read-out: TACK EC50.
For orientation: EC50 means the midpoint of the concentration-response curve. Consider `CC(F)(F)[C@@]1(C#CC2CC2)NC(=O)Nc2cc(Cn3ccc(C#N)n3)c(F)cc21` [Example 17, (S)-1-((4-(cyclopropylethynyl)-4-(1,1-difluoroethyl)-6-fluoro-2-oxo-1,2,3,4-tetrahydroquinazolin-7-yl)methyl)-1H-pyrazole-3-carbonitrile], for which the concentration giving a half-maximal response (EC50) turned out to be 46.3 nM.
To `COCc1cc(Cl)n(Cc2cc3c(cc2F)[C@@](C#CC2CC2)(C(C)(F)F)NC(=O)N3)n1` [Example 18, (S)-7-((5-chloro-3-(methoxymethyl)-1H-pyrazol-1-yl)methyl)-4-(cyclopropylethynyl)-4-(1,1-difluoroethyl)-6-fluoro-3,4-dihydroquinazolin-2(1H)-one] belongs 46.6 nM; to `CC(F)(F)[C@@]1(C#CC2CC2)NC(=O)Nc2cc(Cn3ccc(Br)n3)c(F)cc21` [Example 19, (S)-7-((3-bromo-1H-pyrazol-1-yl)methyl)-4-(cyclopropylethynyl)-4-(1,1-difluoroethyl)-6-fluoro-3,4-dihydroquinazolin-2(1H)-one], 26.2 nM; to `CC(F)(F)[C@@]1(C#CC2CC2)NC(=O)Nc2cc(Cn3cncn3)c(F)cc21` [Example 20, (S)-7-((1H-1,2,4-triazol-1-yl)methyl)-4-(cyclopropylethynyl)-4-(1,1-difluoroethyl)-6-fluoro-3,4-dihydroquinazolin-2(1H)-one], 43.7 nM.
The figure for `O=C1Nc2cc(Cn3cc4cnccc4n3)c(F)cc2[C@@](C#CC2CC2)(C(F)(F)F)N1` [Example 21, (S)-7-((2H-pyrazolo[4,3-c]pyridin-2-yl)methyl)-4-(cyclopropylethynyl)-6-fluoro-4-(trifluoromethyl)-3,4-dihydroquinazolin-2(1H)-one] is 13.4 nM.
The figure for `O=C1Nc2cc(Cn3c(=O)[nH]c4ccccc43)c(F)cc2[C@@](C#CC2CC2)(C(F)(F)F)N1` [Example 24, (S)-4-(cyclopropylethynyl)-6-fluoro-7-((2-oxo-2,3-dihydro-1H-benzo[d]imidazol-1-yl)methyl)-4-(trifluoromethyl)-3,4-dihydroquinazolin-2(1H)-one] is 32.5 nM.
Turning to `O=C1Nc2cc(Cn3cc4cncnc4n3)c(F)cc2[C@@](C#CC2CC2)(C(F)(F)F)N1` [Example 27, (S)-7-((2H-pyrazolo[3,4-d]pyrimidin-2-yl)methyl)-4-(cyclopropylethynyl)-6-fluoro-4-(trifluoromethyl)-3,4-dihydroquinazolin-2(1H)-one], the EC50 was found to be 82.6 nM.
For the compound `O=C1Nc2cc(Cn3cc4cccnc4n3)c(F)cc2[C@@](C#CC2CC2)(C(F)(F)F)N1` [Example 28, (S)-7-((2H-pyrazolo[3,4-b]pyridin-2-yl)methyl)-4-(cyclopropylethynyl)-6-fluoro-4-(trifluoromethyl)-3,4-dihydroquinazolin-2(1H)-one], the 50% effective concentration (EC50) was 104 nM.
In the case of `O=C1Nc2cc(CN3C(=O)CNC3=O)c(F)cc2[C@@](C#CC2CC2)(C(F)(F)F)N1` [Example 29, (S)-3-((4-(cyclopropylethynyl)-6-fluoro-2-oxo-4-(trifluoromethyl)-1,2,3,4-tetrahydroquinazolin-7-yl)methyl)imidazolidine-2,4-dione], the 50% effective concentration (EC50) was found to be 27.4 nM.
The figure for `COCc1ccn(Cc2cc3c(cc2F)[C@@](C#CC2CC2)(C(F)(F)F)NC(=O)N3)n1` [Example 30, (S)-4-(cyclopropylethynyl)-6-fluoro-7-((3-(methoxymethyl)-1H-pyrazol-1-yl)methyl)-4-(trifluoromethyl)-3,4-dihydroquinazolin-2(1H)-one] is 36.5 nM.
The figure for `O=C1Nc2cc(Cn3cnc(CO)n3)c(F)cc2[C@@](C#CC2CC2)(C(F)(F)F)N1` [Example 31, (S)-4-(cyclopropylethynyl)-6-fluoro-7-((3-(hydroxymethyl)-1H-1,2,4-triazol-1-yl)methyl)-4-(trifluoromethyl)-3,4-dihydroquinazolin-2(1H)-one] is 52.8 nM.
